Values after ≈ are worked out from the molar mass of the structure shown.
How the values were obtained:
Test in all cases: MIC, solid dilution method
E. ae 14186 = assay type: cell-based, Enterobacter aerogenes; conditions: Klebsiella aerogenes, 14186
Method: (§1) The above-mentioned glycerol-preserved strains were taken out from the −80° C. refrigerator, streaked and inoculated on MHA plates, labeled, and cultured overnight in a 37° C. incubator.
(§2) The inoculum was prepared directly from bacterial suspension, and several recovered colonies were picked and directly prepared into a bacterial suspension with a turbidity of No. 0.5 McFarland units in normal saline, and a 10-fold dilution was made during inoculation.
(§3) 6 bottles of MHA culture medium 500 mL/bottle were prepared, and the pH was adjusted to 7.2-7.4, sterilized at 121° C. for 15 min, and the medium was placed in a 55° C. water bath to keep warm.
(§4) Sterile blank petri dishes were taken, and marked with each FL drug/concentration according to 2-fold dilution, and 10 concentrations of each drug starting from 8 μg/mL were tested.
(§5) […]; 20 mL was aspirated and added to a petri dish consistent with the mark, and then 20 mL of MHA culture medium was added to the rest of the drug-containing culture medium, mixed evenly, that is, the 2-fold diluted drug-containing culture medium; 20 mL was aspirated and added to the petri dish consistent with the mark, and then diluted to the 10th concentration and the […] respectively by repeating the above-mentioned steps, and then poured into the petri dish.
(§6) 4 bacterial control petri dishes without drug were prepared at the same time as a control.
(§7) The positioning needle and the inoculation needle were installed according to the order of placement of the colony on the inoculation plate. After inoculation, a bacterial solution circle was formed on the petri dish. After the bacterial solution was absorbed by the agar, the petri dish was placed in an incubator at 37° C. for overnight incubation (16-20 hours), and then taken out.
(§8) The minimum inhibitory concentrations of the compounds against the CRE and CSE strains were determined by the solid dilution method, and the results are shown in Tables 3 and 4.

[1] = tested on: Acinetobacter baumannii 6383; assay type: cell-based; conditions: 6383
Method: (§9) CRE Acinetobacter baumannii 8476, 6383, a total of 2 strains; CRE Serratia marcescens 14541, a total of 1 strain; all collected in the Department of Infectious Diseases, West China Hospital, Chengdu, Sichuan Province, and kept in our laboratory.
as §1, §2, §3, §4, §5, §6, §7, §8

[2] = tested on: Acinetobacter baumannii 8476; assay type: cell-based; conditions: A.B 8476, CRE clinical isolate, MHA agar, 37° C., 16-20 hours, read-out: MIC
Method: as §9, §1, §2, §3, §4, §5, §6, §7, §8

[3] = tested on: Serratia marcescens 14541; assay type: cell-based; conditions: 14541
Method: as §9, §1, §2, §3, §4, §5, §6, §7, §8

[4] = tested on: Escherichia coli BAA-2452; assay type: cell-based; conditions: BAA2452, E. coli BAA-2452, standard strain, MHA agar, 37° C., 16-20 hours, read-out: MIC
Method: (§10) (1) Standard strains: Escherichia coli BAA-2452, Escherichia coli ATCC25922, Klebsiella pneumoniae BAA-1705; all purchased from ATCC.
as §1, §2, §3, §4, §5, §6, §7, §8

[5] = tested on: Klebsiella pneumoniae BAA-1705; assay type: cell-based; conditions: BAA1705
Method: as §10, §1, §2, §3, §4, §5, §6, §7, §8

[6] = tested on: Escherichia coli ATCC25922; assay type: cell-based; conditions: E. coli ATCC25922, standard strain, MHA agar, 37° C., 16-20 hours, read-out: MIC
Method: as §10, §1, §2, §3, §4, §5, §6, §7, §8

E. coli 11256 = assay type: cell-based; conditions: Escherichia coli; E. coli 11256; MHA agar, 37° C., 16-20 hours; read-out: MIC
Method: as §1, §2, §3, §4, §5, §6, §7, §8

Klebsiella oxytoca 12391 = assay type: cell-based; conditions: K. ox 12391, CRE clinical isolate, MHA agar, 37° C., 16-20 hours, read-out: MIC
Method: as §1, §2, §3, §4, §5, §6, §7, §8

Klebsiella oxytoca 14153 = assay type: cell-based; conditions: 14153
Method: as §1, §2, §3, §4, §5, §6, §7, §8

Klebsiella oxytoca 14151 = assay type: cell-based; conditions: 14151
Method: as §1, §2, §3, §4, §5, §6, §7, §8

Klebsiella oxytoca 6777 = assay type: cell-based; conditions: 6777
Method: as §1, §2, §3, §4, §5, §6, §7, §8

Escherichia coli 13897 = assay type: cell-based; conditions: E. coli 13897, CRE clinical isolate, MHA agar, 37° C., 16-20 hours, read-out: MIC
Method: as §1, §2, §3, §4, §5, §6, §7, §8

Escherichia coli 14828 = assay type: cell-based; conditions: 14828
Method: as §1, §2, §3, §4, §5, §6, §7, §8

Escherichia coli 11119 = assay type: cell-based; conditions: 11119
Method: as §1, §2, §3, §4, §5, §6, §7, §8

[7] = tested on: Enterobacter aerogenes 8193; assay type: cell-based; conditions: Klebsiella aerogenes; E. ae 8193, CRE clinical isolate; MHA agar, 37° C., 16-20 hours; read-out: MIC
Method: CRE Enterobacter aerogenes 8193, a total of 1 strain;
as §1, §2, §3, §4, §5, §6, §7, §8

[8] = tested on: Klebsiella pneumoniae 13249; assay type: cell-based; conditions: 13249
Method: (§11) (2) Clinical isolated strains: CRE Klebsiella pneumoniae 5846, 11544, 12559, 13249 and CSE Klebsiella pneumoniae 8733, a total of 5 strains;
as §1, §2, §3, §4, §5, §6, §7, §8

[9] = tested on: Klebsiella pneumoniae 5846; assay type: cell-based; conditions: 5846
Method: as §11, §1, §2, §3, §4, §5, §6, §7, §8

[10] = tested on: Klebsiella pneumoniae 11544; assay type: cell-based; conditions: 11544
Method: as §11, §1, §2, §3, §4, §5, §6, §7, §8

[11] = tested on: Klebsiella pneumoniae 8733; assay type: cell-based; conditions: K.p 8733, CSE clinical isolate, MHA agar, 37° C., 16-20 hours, read-out: MIC
Method: as §11, §1, §2, §3, §4, §5, §6, §7, §8

[12] = tested on: Klebsiella pneumoniae 12559; assay type: cell-based; conditions: K.p 12559, CRE clinical isolate, MHA agar, 37° C., 16-20 hours, read-out: MIC
Method: as §11, §1, §2, §3, §4, §5, §6, §7, §8

[13] = tested on: Citrobacter freundii 7646; assay type: cell-based; conditions: C.f 7646, CSE clinical isolate, MHA agar, 37° C., 16-20 hours, read-out: MIC
Method: (§12) CRE Citrobacter freundii 9434, 9484 and CSE Citrobacter freundii 7646, a total of 3 strains;
as §1, §2, §3, §4, §5, §6, §7, §8

[14] = tested on: Citrobacter freundii 9484; assay type: cell-based; conditions: C.f 9484, CRE clinical isolate, MHA agar, 37° C., 16-20 hours, read-out: MIC
Method: as §12, §1, §2, §3, §4, §5, §6, §7, §8

[15] = tested on: Citrobacter freundii 9434; assay type: cell-based; conditions: 9434
Method: as §12, §1, §2, §3, §4, §5, §6, §7, §8

C[C@H]1[C@H](NC(=O)/C(=N\OC(C)(C)C(=O)O)c2csc(N)n2)C(=O)N1S(=O)(=O)O [Aztreonam, aztreonam, reference compound]
MIC (E. ae 14186): > 128 µg/mL
MIC [1]: 128 µg/mL (≈ 294 µM)
MIC [2]: 64 µg/mL (≈ 147 µM)
MIC [3]: > 128 µg/mL
MIC [4]: 8 µg/mL (≈ 18.4 µM)
MIC [5]: > 128 µg/mL
MIC [6]: < 0.25 µg/mL
MIC (E. coli 11256): < 0.25 µg/mL
MIC (Klebsiella oxytoca 12391): 32 µg/mL (≈ 73.5 µM)
MIC (Klebsiella oxytoca 14153): > 128 µg/mL
MIC (Klebsiella oxytoca 14151): > 128 µg/mL
MIC (Klebsiella oxytoca 6777): 128 µg/mL (≈ 294 µM)
MIC (Escherichia coli 13897): 64 µg/mL (≈ 147 µM)
MIC (Escherichia coli 14828): > 128 µg/mL
MIC (Escherichia coli 11119): > 128 µg/mL
MIC [7]: 32 µg/mL (≈ 73.5 µM)
MIC [8]: > 128 µg/mL
MIC [9]: 128 µg/mL (≈ 294 µM)
MIC [10]: > 128 µg/mL
MIC [11]: 8 µg/mL (≈ 18.4 µM)
MIC [12]: 4 µg/mL (≈ 9.19 µM)
MIC [13]: 16 µg/mL (≈ 36.7 µM)
MIC [14]: 1 µg/mL (≈ 2.3 µM)
MIC [15]: > 128 µg/mL

Source: patent US12491180B2, “Application of compound in treating pneumonia” (SHENZHEN OPTIMUM BIOLOGICAL TECHNOLOGY CO., LTD., priority 2019, dated 2025)
